Results taken from the supplement of paper PMC10307832.

What follows are cell lines tested with Cc1cnc(CNC(=O)c2c(=O)c3ccc(N4CCCN(C)CC4)nc3n3c2sc2ccccc23)cn1 [CX-5461] + Nc1ncn([C@H]2C[C@H](O)[C@@H](CO)O2)c(=O)n1 [Decitabine] (partner 2 µM) (assay: relative viability (nuclei count vs DMSO), 5 days (fraction); higher = more cells survive). Settings: first compound 0.01 µM.
Method in brief: (§1)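 Nuclei were stained with Hoechst during a one-step fixation (final 0.05% Triton X-100, 1% formaldehyde, 1 ug/ml Hoechst) carried out 5 days after dosing, then counted on 4× images. The cells, lung cancer lines in 1536-well plates, had been dosed by pin tool the day after seeding with one drug alone or a fixed anchor-drug dose plus five library-drug doses (not always all listed) in √10 steps. Relative viability is the nuclei count in treated wells divided by that in vehicle wells, and each value is the median of duplicate plates.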

| Cell Line | relative viability |
| --- | --- |
| NCI-H522 | 0.763 |
| NCI-H727 | 0.89 |
| NCI-H1650 | 0.395 |
| NCI-H1395 | 0.764 |
| NCI-H2342 | 0.686 |
| LK-2 | 0.329 |
| NCI-H358 | 0.206 |
| A549 | 0.299 |
| SW 900 | 0.631 |
| NCI-H1648 | 0.493 |
| NCI-H1793 | 0.504 |
| NCI-H1944 | 0.478 |
| NCI-H2170 | 0.471 |
| ABC-1 | 0.971 |
| SK-MES-1 | 0.379 |

Same assay, conditions: first compound 0.03162 µM

| Cell Line | relative viability |
| --- | --- |
| NCI-H522 | 0.641 |
| NCI-H727 | 0.917 |
| NCI-H1650 | 0.441 |
| NCI-H1395 | 0.673 |
| NCI-H2342 | 0.699 |
| LK-2 | 0.278 |
| NCI-H358 | 0.195 |
| A549 | 0.387 |
| SW 900 | 0.448 |
| NCI-H1648 | 0.508 |
| NCI-H1793 | 0.446 |
| NCI-H1944 | 0.443 |
| NCI-H2170 | 0.454 |
| SK-MES-1 | 0.398 |

Same assay, conditions: first compound 0.1 µM

| Cell Line | relative viability |
| --- | --- |
| NCI-H522 | 0.671 |
| NCI-H727 | 0.839 |
| NCI-H1650 | 0.344 |
| NCI-H1395 | 0.805 |
| NCI-H2342 | 0.734 |
| LK-2 | 0.302 |
| NCI-H358 | 0.151 |
| A549 | 0.249 |
| NCI-H1648 | 0.488 |
| NCI-H1793 | 0.535 |
| NCI-H1944 | 0.429 |
| NCI-H2170 | 0.493 |
| ABC-1 | 1.38 |
| SK-MES-1 | 0.413 |

Same assay, conditions: first compound 0.3162 µM

| Cell Line | relative viability |
| --- | --- |
| NCI-H727 | 0.83 |
| NCI-H1650 | 0.378 |
| NCI-H1395 | 0.653 |
| NCI-H2342 | 0.691 |
| LK-2 | 0.162 |
| NCI-H358 | 0.149 |
| A549 | 0.269 |
| SW 900 | 0.457 |
| NCI-H1648 | 0.44 |
| NCI-H1793 | 0.379 |
| NCI-H1944 | 0.371 |
| NCI-H2170 | 0.504 |
| ABC-1 | 0.429 |
| SK-MES-1 | 0.394 |

Same assay, conditions: first compound 1 µM

| Cell Line | relative viability |
| --- | --- |
| NCI-H522 | 0.678 |
| NCI-H727 | 0.956 |
| NCI-H1650 | 0.207 |
| NCI-H1395 | 0.532 |
| NCI-H2342 | 0.586 |
| LK-2 | 0.279 |
| NCI-H358 | 0.121 |
| A549 | 0.0566 |
| SW 900 | 0.387 |
| NCI-H1648 | 0.474 |
| NCI-H1793 | 0.581 |
| NCI-H1944 | 0.44 |
| NCI-H2170 | 0.446 |
| ABC-1 | 0.96 |
| SK-MES-1 | 0.212 |

Each cell line was assayed with O=C(Nc1cc(C(F)(F)F)cc(C(F)(F)F)c1)c1cc(Cl)ccc1O [IMD-0354] + C[C@@H](Oc1cc(-c2cnn(C3CCNCC3)c2)cnc1N)c1c(Cl)ccc(F)c1Cl [Crizotinib] (partner 1 µM) in the same assay as above. Settings: first compound 0.04 µM.
Method in brief: as §1

| Cell Line | relative viability |
| --- | --- |
| NCI-H727 | 0.688 |
| NCI-H1650 | 0.921 |
| EBC-1 | 0.19 |
| NCI-H1703 | 0.9 |
| Calu-6 | 0.842 |
| LK-2 | 0.22 |
| IA-LM | 0.948 |
| NCI-H358 | 0.6 |
| A549 | 0.834 |
| NCI-H1299 | 0.943 |
| CAL-12T | 0.855 |
| NCI-H2228 | 0.389 |
| NCI-H1944 | 0.947 |
| NCI-H1563 | 0.904 |
| NCI-H2170 | 1.3 |
| ABC-1 | 1.42 |
| SK-MES-1 | 1.03 |

Same assay, conditions: first compound 0.1265 µM

| Cell Line | relative viability |
| --- | --- |
| NCI-H727 | 0.827 |
| NCI-H1650 | 0.793 |
| EBC-1 | 0.204 |
| NCI-H1703 | 0.626 |
| Calu-6 | 0.689 |
| LK-2 | 0.201 |
| IA-LM | 0.974 |
| NCI-H358 | 0.611 |
| A549 | 0.764 |
| NCI-H1299 | 1 |
| CAL-12T | 0.472 |
| NCI-H2228 | 0.442 |
| NCI-H1944 | 1.07 |
| NCI-H1563 | 0.774 |
| NCI-H2170 | 1.39 |
| ABC-1 | 1.22 |
| SK-MES-1 | 1.08 |

Same assay, conditions: first compound 0.4 µM

| Cell Line | relative viability |
| --- | --- |
| NCI-H727 | 0.484 |
| NCI-H1650 | 0.578 |
| EBC-1 | 0.208 |
| NCI-H1703 | 0.494 |
| Calu-6 | 0.506 |
| LK-2 | 0.28 |
| IA-LM | 0.51 |
| NCI-H358 | 0.228 |
| A549 | 0.265 |
| NCI-H1299 | 0.518 |
| CAL-12T | 0.395 |
| NCI-H2228 | 0.405 |
| NCI-H1563 | 0.822 |
| NCI-H2170 | 0.574 |
| ABC-1 | 0.765 |
| SK-MES-1 | 0.559 |

Same assay, conditions: first compound 1.265 µM

| Cell Line | relative viability |
| --- | --- |
| NCI-H727 | 0.547 |
| NCI-H1650 | 0.19 |
| EBC-1 | 0.209 |
| NCI-H1703 | 0.254 |
| Calu-6 | 0.276 |
| LK-2 | 0.29 |
| IA-LM | 0.0996 |
| NCI-H358 | 0.232 |
| A549 | 0.0905 |
| NCI-H1299 | 0.294 |
| CAL-12T | 0.16 |
| NCI-H2228 | 0.179 |
| NCI-H1944 | 1.04 |
| NCI-H1563 | 0.484 |
| NCI-H2170 | 1.2 |
| ABC-1 | 0.221 |
| SK-MES-1 | 0.721 |

Same assay, conditions: first compound 4 µM

| Cell Line | relative viability |
| --- | --- |
| NCI-H727 | 0.385 |
| NCI-H1650 | 0.205 |
